Data taken from patent US9744189B1, “Compositions of lithium salts and methods of use” (University of South Florida, priority 2013, dated 2017).
Where two headings read alike, the source gives them in different places.

What was measured:
[1] = for AUC(0-72): 0-72 h; for TMAX: noncompartmental analysis; for time of peak brain lithium level (FIG. 4-5): post-dose
Protocol: (§1) Male Sprague Dawley rats weighing 200-250 grams were housed in a vivarium with a 12 hour light-dark cycle. The rats were allowed to acclimate for a period of one week before any experiments were carried out, and were allowed free access to food and water throughout the experiment.
(§2) Animals in each treatment group were euthanized at 2, 24, 48, and 72 hours (n=3/time point) and blood was collected by cardiac puncture and carefully perfused with a pressure-controlled pump to maintain microvasculature integrity before removing brain tissue. Blood was centrifuged at 1600×g at room temperature for 10 minutes and plasma was separated. A 500 μl aliquot was diluted 10 fold in a 5% TCA and 10% IPA solution, vortexed and allowed to sit for 10 minutes in order to precipitate proteins. These aliquots were centrifuged at 3000×g for 30 minutes and the supernatant was transferred to clean tubes prior to measuring lithium content using atomic absorption spectroscopy (AAS). Brains were rinsed with PBS, weighed, and an equal volume of concentrated HNO3 was added. The brains were heated in nitric acid solution for 1 hour, allowed to cool to room temperature, then centrifuged at 3000×g for 1 hour. The supernatant was removed and diluted 10 fold in 10% IPA prior to measuring lithium content using AAS.
(§3) The reported parameters include CMAX, TMAX, area under curve (AUC), and apparent terminal half-life (HL_Lambda_z).
(§4) Lithium was measured using atomic absorption spectroscopy (AAS) (Shimadzu AA-6200; Shimadzu Scientific Instruments, Inc., Columbia, Md.). Peak height measurements were carried out referring to values obtained for standards of known concentrations. Lithium measurements were plotted using GraphPad PRISM software (GraphPad Software, Inc., La Jolla, Calif.) as mean±SEM and two tailed t-tests were used to assess the statistical significance at each time point for the pharmacokinetic curves. The criterion for rejection of the null hypothesis was p<0.05.

[2] = for AUC(0-72): 0-72 h; for TMAX: noncompartmental analysis; for time of peak lithium plasma level (FIG. 2-3): post-dose
Protocol: as §1, §2, §3, §4

in vivo [3] = settings: male, Sprague-Dawley, rat, brain, oral, 4 mEq/kg
Protocol: as §1, §2, §3, §4

in vivo [4] = settings: male, Sprague-Dawley, rat, plasma, oral, 4 mEq/kg
Protocol: as §1, §2, §3, §4

[5] = previous reports; cited from earlier work
[6] = rats; carbonate vs chloride vs orotate; cited from earlier work
[7] = cited from earlier work
[8] = Brain, rats, 4 mEq/kg oral gavage
[9] = Blood, rats, 4 mEq/kg oral gavage

| SMILES | AUC(0-72) [1, 8] [µg·h/g] | TMAX [1, 8] [h] | brain lithium level at 24 hours ([1]; brain) | brain lithium level by 72 hours ([1]; brain) | time of peak brain lithium level (FIG. 4-5) ([1]; brain, rats) [h] | CMAX [2, 9] [µg/mL] | AUC(0-72) [2, 9] [µg·h/mL] | TMAX [2, 9] [h] | lithium plasma level by 48 hours ([2]; plasma) | lithium plasma level by 72 hours ([2]; plasma) | time of peak lithium plasma level (FIG. 2-3) ([2]; plasma, rats) | differences in uptake, distribution and excretion of the lithium ion [6] | other results |
| --- | --- | --- | --- | --- | --- | --- | --- | --- | --- | --- | --- | --- | --- |
| CC(O)C(=O)[O-].[Li+] (stereo not drawn) [Lithium Lactate, lithium lactate] | 152.0 | 24 | around 4 μg/ml | negligible levels | 24 | 4.54 | 157.2 | 24 | about 0.5 μg/ml | around 0 μg/ml | 24 h |  | HL_Lambda_z (apparent terminal half-life) [1, 8]: 13.0 h; HL_Lambda_z (apparent terminal half-life) [2, 9]: 6.9 h |
| O=C([O-])c1ccccc1O.[Li+] [Lithium Salicylate, lithium salicylate] | 153.1 | 48 |  |  | 48 | 2.21 | 121.8 | 24 |  |  | around 48 hours |  | concentration at 24 h (in vivo [3]): ~2500 ng/mL; concentration at 48 h (in vivo [3]): 3000 ng/mL; concentration at 72 h (in vivo [3]): 2000 ng/mL; concentration at 24 h (in vivo [4]): 2100 ng/mL; concentration at 48 h (in vivo [4]): 2000 ng/mL; concentration at 72 h (in vivo [4]): ~250 ng/mL |
| O=C([O-])[O-].[Li+].[Li+] [lithium carbonate, reference compound] |  |  | 8 µg/mL | about 0.5 μg/ml | 24 |  |  |  | about 0.5 μg/ml | around 0 μg/ml | 24 h | no differences | time to elimination [5]: ≤ 48 h; brain lithium level at 48 hours ([1]; brain, 48 hours): about 3.8 μg/ml; peak lithium plasma level relative to lithium lactate ([2]; plasma, 24 hours): about 2.5 times; lithium plasma level at 24 hours (peak) ([2]; plasma, 24 hours post-dose): about 12 μg/ml |
| [Cl-].[Li+] [lithium chloride] |  |  |  |  |  |  |  |  |  |  |  | no differences |  |
| O=C([O-])c1cc(=O)[nH]c(=O)[nH]1.[Li+] [lithium orotate] |  |  |  |  |  |  |  |  |  |  |  | no differences |  |
| [Li] [lithium] |  |  |  |  |  |  |  |  |  |  |  |  | elimination half-life ([7]; acute treatment): 24 h; CNS levels of lithium relative to plasma levels ([7]; in vivo): approximately 40%; serum levels considered toxic ([7]; in vivo): ≥ 2.0; serum levels that increase the likelihood of toxicity and detrimental effects ([7]; in vivo): greater than 1.5 mEq/l; time to peak plasma levels after overdoses ([7]; overdose): 72 h; elimination half-life ([7]; some chronically treated individuals): ≤ 60 h |
